pIC50: −log10 of the molar value.
Molecular target: Human indoleamine 2,3-dioxygenase (IDO) (Homo sapiens (Human), UniProt P14902)
Experiment: Human Indoleamine 2,3-Dioxygenase (IDO) Enzyme Assay
Assay type: biochemical
Conditions: Table 2; assay of Example A; 95 nM IDO, 2 mM D-Trp, pH 6.5, room temperature
Description: Human indoleamine 2,3-dioxygenase (IDO) with an N-terminal His tag was expressed in E. coli and purified to homogeneity. IDO catalyzes the oxidative cleavage of the pyrrole ring of the indole nucleus of tryptophan to yield N′-formylkynurenine.

Human indoleamine 2,3-dioxygenase (IDO), sequence (P14902 whole entry): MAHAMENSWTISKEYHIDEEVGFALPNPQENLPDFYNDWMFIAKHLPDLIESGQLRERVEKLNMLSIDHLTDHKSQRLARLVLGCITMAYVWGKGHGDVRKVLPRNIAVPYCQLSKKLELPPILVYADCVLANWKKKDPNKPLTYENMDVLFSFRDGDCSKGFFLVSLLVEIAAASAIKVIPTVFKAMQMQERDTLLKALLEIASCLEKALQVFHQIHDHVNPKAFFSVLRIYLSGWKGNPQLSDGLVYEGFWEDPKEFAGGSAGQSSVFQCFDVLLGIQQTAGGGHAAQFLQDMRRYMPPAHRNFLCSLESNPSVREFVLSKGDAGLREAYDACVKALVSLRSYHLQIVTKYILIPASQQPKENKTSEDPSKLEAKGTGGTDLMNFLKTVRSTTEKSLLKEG

Row | pIC50 | Compound
1 | > 7.00 | NS(=O)(=O)NCCCNc1nonc1C(=NO)Nc1ccc(F)c(C(F)(F)F)c1 [Example 11, 4-({3-[(Aminosulfonyl)amino]propyl}amino)-N-[4-fluoro-3-(trifluoromethyl)phenyl]-N′-hydroxy-1,2,5-oxadiazole-3-carboximidamide]
2 | > 6.30 | NS(=O)(=O)NCCNc1nonc1C(=NO)Nc1cccc(C(F)(F)F)c1 [Example 13, 4-({2-[(Aminosulfonyl)amino]ethyl}amino)-N′-hydroxy-N-[3-(trifluoromethyl)phenyl]-1,2,5-oxadiazole-3-carboximidamide]
3 | > 7.00 | CS(=O)(=O)NCCCNc1nonc1C(=NO)Nc1ccc(F)c(Br)c1 [Example 4, N-(3-Bromo-4-fluorophenyl)-N′-hydroxy-4-({3-[(methylsulfonyl)amino]propyl}amino)-1,2,5-oxadiazole-3-carboximidamide]
4 | > 6.70 | NS(=O)(=O)NCCCNc1nonc1C(=NO)Nc1ccc(F)c(Cl)c1 [Example 7, 4-({3-[(Aminosulfonyl)amino]propyl}amino)-N-(3-chloro-4-fluorophenyl)-N′-hydroxy-1,2,5-oxadiazole-3-carboximidamide]
5 | > 7.00 | CS(=O)(=O)NCCCNc1nonc1C(=NO)Nc1ccc(F)c(C(F)(F)F)c1 [Example 12, N-[4-Fluoro-3-(trifluoromethyl)phenyl]-N′-hydroxy-4-({3-[(methylsulfonyl)amino]propyl}amino)-1,2,5-oxadiazole-3-carboximidamide]
6 | > 7.00 | NS(=O)(=O)NCCCNc1nonc1C(=NO)Nc1ccc(F)c(Br)c1 [Example 3, 4-({3-[(Aminosulfonyl)amino]propyl}amino)-N-(3-bromo-4-fluorophenyl)-N′-hydroxy-1,2,5-oxadiazole-3-carboximidamide]
7 | > 6.70 | NS(=O)(=O)NCCNc1nonc1C(=NO)Nc1ccc(F)c(Cl)c1 [Example 5, 4-({2-[(Aminosulfonyl)amino]ethyl}amino)-N-(3-chloro-4-fluorophenyl)-N′-hydroxy-1,2,5-oxadiazole-3-carboximidamide]
8 | > 6.30 | CS(=O)(=O)NCCNc1nonc1C(=NO)Nc1ccc(F)c(C#N)c1 [Example 19, N-(3-Cyano-4-fluorophenyl)-N′-hydroxy-4-({2-[(methylsulfonyl)amino]ethyl}amino)-1,2,5-oxadiazole-3-carboximidamide]
9 | > 6.30 | Cc1cc(NC(=NO)c2nonc2NCCNS(C)(=O)=O)ccc1F [Example 17, N-(4-Fluoro-3-methylphenyl)-N′-hydroxy-4-({2-[(methylsulfonyl)amino]ethyl}amino)-1,2,5-oxadiazole-3-carboximidamide]
10 | > 6.70 | CS(=O)(=O)NCCNc1nonc1C(=NO)Nc1cccc(C(F)(F)F)c1 [Example 14, N′-Hydroxy-4-({2-[(methylsulfonyl)amino]ethyl}amino)-N-[3-(trifluoromethyl)phenyl]-1,2,5-oxadiazole-3-carboximidamide]
11 | > 7.00 | NS(=O)(=O)NCCNc1nonc1C(=NO)Nc1ccc(F)c(C(F)(F)F)c1 [Example 9, 4-({2-[(Aminosulfonyl)amino]ethyl}amino)-N-[4-fluoro-3-(trifluoromethyl)phenyl]-N′-hydroxy-1,2,5-oxadiazole-3-carboximidamide]
12 | > 6.70 | CS(=O)(=O)NCCCNc1nonc1C(=NO)Nc1ccc(F)c(Cl)c1 [Example 8, N-(3-Chloro-4-fluorophenyl)-N′-hydroxy-4-({3-[(methylsulfonyl)amino]propyl}amino)-1,2,5-oxadiazole-3-carboximidamide]
13 | > 6.70 | NS(=O)(=O)NCCCNc1nonc1C(=NO)Nc1cccc(C(F)(F)F)c1 [Example 15, 4-({3-[(Aminosulfonyl)amino]propyl}amino)-N′-hydroxy-N-[3-(trifluoromethyl)phenyl]-1,2,5-oxadiazole-3-carboximidamide]
14 | > 6.70 | CS(=O)(=O)NCCNc1nonc1C(=NO)Nc1ccc(F)c(Cl)c1 [Example 6, N-(3-Chloro-4-fluorophenyl)-N′-hydroxy-4-({2-[(methylsulfonyl)amino]ethyl}amino)-1,2,5-oxadiazole-3-carboximidamide]
15 | > 7.00 | CS(=O)(=O)NCCNc1nonc1C(=NO)Nc1ccc(F)c(C(F)(F)F)c1 [Example 10, N-[4-Fluoro-3-(trifluoromethyl)phenyl]-N′-hydroxy-4-({2-[(methylsulfonyl)amino]ethyl}amino)-1,2,5-oxadiazole-3-carboximidamide]
16 | > 6.70 | CS(=O)(=O)NCCCNc1nonc1C(=NO)Nc1cccc(C(F)(F)F)c1 [Example 16, N′-Hydroxy-4-({3-[(methylsulfonyl)amino]propyl}amino)-N-[3-(trifluoromethyl)phenyl]-1,2,5-oxadiazole-3-carboximidamide]
17 | > 6.12 | N#Cc1cc(NC(=NO)c2nonc2NCCNS(N)(=O)=O)ccc1F [Example 18, 4-({2-[(Aminosulfonyl)amino]ethyl}amino)-N-(3-cyano-4-fluorophenyl)-N′-hydroxy-1,2,5-oxadiazole-3-carboximidamide]

Same assay, conditions: Table 3; assay of Example A; 95 nM IDO, 2 mM D-Trp, pH 6.5, room temperature

Row | pIC50 | Compound
18 | > 6.30 | NS(=O)(=O)NCCNc1nonc1C(=NO)NCc1cc(Br)co1 [Example 20, 4-({2-[(Aminosulfonyl)amino]ethyl}amino)-N-[(4-bromo-2-furyl)methyl]-N′-hydroxy-1,2,5-oxadiazole-3-carboximidamide]
19 | > 6.12 | NS(=O)(=O)NCCNc1nonc1C(=NO)NCc1cc(Cl)co1 [Example 21, 4-({2-[(Aminosulfonyl)amino]ethyl}amino)-N-[(4-chloro-2-furyl)methyl]-N′-hydroxy-1,2,5-oxadiazole-3-carboximidamide]
